Data set [1] deals with human LINE-1. Briefly: Human LINE-1 retrotransposition assay, related experiments with islatravir (pYX017, HeLa cells, Tables 12 and 13). The format is cell-based. As for the experimental part:
In related experiments, islatravir and other compounds were tested for inhibition of retrotransposition activity of human LINE-1 in HeLa cells according to the following procedure.
HeLa cervical cancer cells were cultivated at 37° C. in a humidified 5% CO2 incubator in Dulbecco's Modified Eagle's Medium (DMEM)—high glucose, with 4500 mg/L glucose, L-glutamine, sodium pyruvate and sodium bicarbonate (Sigma), supplemented with 10% of heat inactivated fetal bovine serum (Thermo Fisher).
Assays were performed using reporter plasmid pYX017 as described (Xie, et al., 2011) with several modifications. The reporter assay was performed in 96-well white optical bottom plates. HeLa cells were seeded in wells 24 h prior to transfection and compound treatment so that cells were approximately 30% confluent on the day of transfection. Different cell plating densities were tested and a density of 2×10^3 cells was determined to be optimal.
Compounds were resuspended in DMSO. Serial dilutions (1:3) were prepared in DMSO. Medium containing different concentrations of the compounds were prepared by adding 2 μl of the compound dilution to 1 ml of the culture medium. The final concentration of DMSO in the medium was 0.2%.
FuGENE® HD transfection reagent (Promega, E2311, Lot 382574 and Lot 397842) was used to transfect the plasmids into the cells. The transfection reagent: DNA mixture was prepared in OpiMEM (Thermo Fisher) according to manufacturer's instructions. Different ratios of transfection reagent to DNA were tested and a ratio of 3:1 was determined to be optimal. Culture medium was removed from the cells and discarded. The transfection reagent: DNA mixture (5 μl) was mixed with the compound containing medium (100 μl/well) and this was added onto the cells of each well. Cells were incubated at 37° C./5% CO2 for different incubation time. A 72 h incubation time was determined to be optimal.
Luciferase reporter activity was quantified with the Dual-Luciferase® Reporter Assay System (Promega) according to manufacturer's instructions for multiwell plates except that cells were lysed directly on the multiwell plate with 30 μl of the passive lysis buffer (PLB) for 20 min at room temperature, with gentle shaking to ensure complete cell lysis.
Firefly and Renilla luciferase signals were measured using a SpectraMax i3x Multi-Mode Microplate Reader. Integration times of 100 ms and 10 ms were used to measure the Firefly and Renilla signals respectively. Relative L1 activity is calculated as Firefly/Renilla *1000 or Firefly/Renilla *10,000. Dose response inhibition data were fit to a four parameter logistic equation using non-linear regression (using Graphpad Prism 8), to determine IC50 values for each inhibitor.

Data set [2] can be described thus: Comparative studies: intracellular drug concentration relative to LINE-1 IC50 and huCSF/Plasma ratio. The conditions noted are these: Table 13 Comparative Studies.
The conditions of data set [3]: Table 13 Comparative Studies; cited from earlier work.
The subject of a further data set is mouse LINE-1. The data set is described as follows: Mouse LINE-1 retrotransposition assay (dual luciferase pYX016 reporter, HeLa cells). The format is cell-based. The procedure:
Elvucitabine was obtained by custom synthesis. […] HeLa cervical cancer cells were cultivated at 37° C. in a humidified 5% CO2 incubator in Dulbecco's Modified Eagle's Medium (DMEM)-high glucose, with 4500 mg/L glucose, L-glutamine, sodium pyruvate and sodium bicarbonate (Sigma), supplemented with 10% of heat inactivated fetal bovine serum (Thermo Fisher). Assays were performed as described in Xie et al., 2011^151 with several modifications. The reporter assay was performed in 96 well white Optical bottom plates. 6000 HeLa cells were seeded in each well 24 hours prior transfection and compound treatment. All compounds were resuspended in DMSO. Stock solution concentrations varied from 50 mM to 1.25 mM depending of the solubility of the compound. Serial dilutions (1:3) were prepared in DMSO. Ten different concentrations of each compound were tested in triplicate. Medium containing different concentrations of the compounds were prepared by adding 2 μL of the compound dilution to 1 mL of the culture medium. The final concentration of DMSO in the medium was 0.2%. FuGENE® HD transfection reagent (Promega) was used to transfect the plasmid pYX016 into the cells. The transfection mix was prepared in OpiMEM (Thermo Fisher) using a reagent to DNA ratio of 3.5:1 according to manufacturer's instructions. Culture medium was removed from the cells and discarded. The transfection mix (5 μL) was mixed with the compound containing medium (100 μL/well) and this was added onto the cells of each well. Cells were incubated for 48H at 37° C./5% CO2. Luciferase reporter activity was quantified with the Dual-Luciferase® Reporter Assay System (Promega) according to manufacturer's instructions for multiwell plates with the following modification: Cells were lysed directly on the multiwell plate with 30 μL of the passive lysis buffer (PLB) for 20 min at room temperature, with gentle shaking to ensure complete cell lysis (instead of 20 μL of PLB for 15 min). Firefly and Renilla luciferase signals were measured using a SpectraMax i3x Multi-Mode Microplate Reader. […] Relative L1 activity was calculated as Firefly/Renilla *10,000. […] The experiment was performed twice, independently.

Data set [4] has as its system human LINE-1. The data set is described as follows: Human LINE-1 retrotransposition assay (dual luciferase pYX017 reporter, HeLa cells, Table 11). The class given is cell-based. The procedure:
Assays were performed as described in Xie et al., 2011^151 with several modifications. The reporter assay was performed in 96 well white Optical bottom plates. 6000 HeLa cells were seeded in each well 24 hours prior transfection and compound treatment. All compounds were resuspended in DMSO. Stock solution concentrations varied from 50 mM to 1.25 mM depending of the solubility of the compound. Serial dilutions (1:3) were prepared in DMSO. Ten different concentrations of each compound were tested in triplicate. Medium containing different concentrations of the compounds were prepared by adding 2 μL of the compound dilution to 1 mL of the culture medium. The final concentration of DMSO in the medium was 0.2%. FuGENE® HD transfection reagent (Promega) was used to transfect the plasmid pYX016 into the cells. The transfection mix was prepared in OpiMEM (Thermo Fisher) using a reagent to DNA ratio of 3.5:1 according to manufacturer's instructions. Culture medium was removed from the cells and discarded. The transfection mix (5 μL) was mixed with the compound containing medium (100 μL/well) and this was added onto the cells of each well. Cells were incubated for 48H at 37° C./5% CO2. Luciferase reporter activity was quantified with the Dual-Luciferase® Reporter Assay System (Promega) according to manufacturer's instructions for multiwell plates with the following modification: Cells were lysed directly on the multiwell plate with 30 μL of the passive lysis buffer (PLB) for 20 min at room temperature, with gentle shaking to ensure complete cell lysis (instead of 20 μL of PLB for 15 min). Firefly and Renilla luciferase signals were measured using a SpectraMax i3x Multi-Mode Microplate Reader. […] Relative L1 activity was calculated as Firefly/Renilla *10,000. […] The experiment was performed twice, independently. […] Because the human construct yields a lower signal, compounds were incubated with cells for 72 hours instead of 48 hours, and cells were seeded at a density of 2000/well instead of 6000/well. In addition, the transfection reagent to DNA ratio was 2:1 instead of 3.5:1.

The conditions of data set [5]: in vivo; cited from earlier work.
The next data set concerns HIV WT. The conditions noted are these: read-out: IC50 for HIV (intracellular EFdA-TP); cited from earlier work.
Data set [6] deals with human LINE-1. Briefly: Islatravir Inhibitory Quotient (IQ) estimate for human LINE-1 in PBMC and brain. Particulars: PBMC, intracellular EFdA-TP, used for IQ.
The mark [7] stands for this setting: Homo sapiens, HeLa, Table 13 Comparative Studies, read-out: Human Line-1 IC50.
The mark [8] stands for this setting: pYX016, 48 H post-transfection, read-out: Mouse L1 activity inhibition IC50, Exp. 1.
Setting [9] is: pYX016, 48 H post-transfection, read-out: Mouse L1 activity inhibition IC50, Exp. 2.
Where [10] appears, read: pYX016, 48 H, n = 2, read-out: Mouse L1 activity inhibition IC50, Average.
Setting [11] is: Homo sapiens, HeLa cells, pYX017, 72 h, n = 3, read-out: Human LINE-1 IC50, Average.
The mark [12] stands for this setting: Homo sapiens, HeLa cells, pYX017, 72 h, read-out: Human LINE-1 IC50, Exp.1.
[13] abbreviates: Homo sapiens, HeLa cells, pYX017, 72 h, read-out: Human LINE-1 IC50, Exp.2.
Setting [14] is: Homo sapiens, HeLa cells, pYX017, 72 h, read-out: Human LINE-1 IC50, Exp. 3.

Where two headings read alike, the source gives them in different places.

`Nc1nc(NC2CC2)c2ncn([C@H]3C=C[C@@H](CO)C3)c2n1` [Abacavir (ABC), Abacavir]: the IC50 (commonly the concentration that gives 50% inhibition) in the data set with human LINE-1 [1] (setting [7]) is 17100 nM. The “Human Line-1 Intracellular drug conc. (% of IC-50 conc.)” value in data set [2] is 106%. The huCSF/Plasma in data set [3] is 0.67.
As for `Nc1ccn([C@H]2CO[C@@H](CO)S2)c(=O)n1` [Apricitabine], the figures for the IC50 in the data set on mouse LINE-1 (setting [8]), in the data set on mouse LINE-1 (setting [9]) and with mouse LINE-1 (setting [10]) were 4440 nM, 3820 nM and 4130 nM, respectively.
As for `O=C(NCc1c(F)cc(F)cc1F)c1cn2c(c(O)c1=O)C(=O)N1[C@H]3CC[C@H](C3)O[C@@H]1C2` [Bictegravir], the IC50 with human LINE-1 [1] (setting [11]) was over 12400 nM; in the data set on human LINE-1 [1] (setting [12]), 12400 nM; in the data set with human LINE-1 [1] (setting [13]), over 50000 nM.
Take `C#C[C@@]1(CO)C=C[C@H](n2cc(C)c(=O)[nH]c2=O)O1` [Censavudine]: the IC50 in the data set with mouse LINE-1 (setting [8]) is 118 nM; with mouse LINE-1 (setting [9]) it was 105 nM; in the data set with mouse LINE-1 (setting [10]) it was 112 nM; in the data set on mouse LINE-1 (read-out: mouse L1 inhibition IC50) it was about 100 nM; in the data set on human LINE-1 [1] (setting [11]) it was 100 nM; with human LINE-1 [1] (setting [14]), 50 nM. Moreover, the IC50 is 130 nM with human LINE-1 [1] (setting [12]); 120 nM in the data set with human LINE-1 [1] (setting [13]); 53 nM with human LINE-1 [4] (pYX017, 72 H post-transfection, read-out: Human L1 activity inhibition IC50, Exp. 1); 92 nM in the data set with human LINE-1 [4] (pYX017, 72 H post-transfection, read-out: Human L1 activity inhibition IC50, Exp. 2); 72 nM with human LINE-1 [4] (pYX017, 72 H, n = 2, read-out: Human L1 activity inhibition IC50, Average); about 100 nM with human LINE-1 [4] (read-out: human L1 inhibition IC50).
As to `C[C@@H]1CCO[C@H]2Cn3cc(C(=O)NCc4ccc(F)cc4F)c(=O)c(O)c3C(=O)N12` [Dolutegravir sodium], the IC50 in the data set on human LINE-1 [1] (setting [11]) was over 9380 nM; in the data set on human LINE-1 [1] (setting [14]) it was over 20000 nM; in the data set on human LINE-1 [1] (setting [12]), 9380 nM.
As to `C#C[C@]1(COP(=O)(O)OP(=O)(O)OP(=O)(O)O)O[C@@H](n2cnc3c(N)nc(F)nc32)C[C@@H]1O` [EFdA-TP], in data set [5], the “intracellular T-half in human PBMC” value is 78.5 to 128 h. In addition, the IC50 in the data set on HIV WT is 49 nM. For the same compound, the EC50 (commonly the concentration giving half of the maximal effect) with human LINE-1 [6] is 316 nM.
Turning to `O=C1Nc2ccc(Cl)cc2[C@@](C#CC2CC2)(C(F)(F)F)O1` [Efavirenz], the IC50 was over 250 nM in the data set with human LINE-1 [1] (setting [11]), over 50000 nM in the data set on human LINE-1 [1] (setting [12]) and over 250 nM in the data set with human LINE-1 [1] (setting [13]).
For `Cc1ccnc2c1NC(=O)c1cccnc1N2C1CC1` [Nevirapine], the IC50 in the data set on human LINE-1 [1] (setting [11]), with human LINE-1 [1] (setting [12]) and in the data set on human LINE-1 [1] (setting [13]) was over 50000 nM throughout.
With `Cc1nnc(C(=O)NC(C)(C)c2nc(C(=O)NCc3ccc(F)cc3)c(O)c(=O)n2C)o1` [Raltegravir potassium], the IC50 in the data set with human LINE-1 [1] (setting [11]) is over 9860 nM; with human LINE-1 [1] (setting [14]) it was 49300 nM; in the data set on human LINE-1 [1] (setting [12]), 9860 nM; in the data set on human LINE-1 [1] (setting [13]) it was over 50000 nM.
On to `Cc1cc(/C=C/C#N)cc(C)c1Nc1ccnc(Nc2ccc(C#N)cc2)n1` [Rilpivirine], for which the IC50 in the data set on human LINE-1 [1] (setting [11]) was over 15100 nM; in the data set on human LINE-1 [1] (setting [14]) it was 45500 nM; with human LINE-1 [1] (setting [12]) it was over 50000 nM; in the data set on human LINE-1 [1] (setting [13]), 15100 nM.
As for `Cc1cn([C@H]2C=C[C@@H](CO)O2)c(=O)[nH]c1=O` [Stavudine], the 50% inhibitory concentration (IC50) came out at 1590 nM in the data set on mouse LINE-1 (setting [8]), 1860 nM in the data set with mouse LINE-1 (setting [9]), 1720 nM with mouse LINE-1 (setting [10]) and 750 nM in the data set on human LINE-1 [1] (setting [7]). The “Human Line-1 Intracellular drug conc. (% of IC-50 conc.)” value in data set [2] is 63%. Further, the huCSF/Plasma in data set [3] is given as 0.2.
Consider `CC(C)OC(=O)OCOP(=O)(CO[C@H](C)Cn1cnc2c(N)ncnc21)OCOC(=O)OC(C)C` [Tenofovir Disiproxil, tenofovir disoproxil], for which the IC50 was determined as 157 nM in the data set on mouse LINE-1 (setting [8]), 151 nM with mouse LINE-1 (setting [9]), 154 nM with mouse LINE-1 (setting [10]) and 200 nM with human LINE-1 [1] (setting [7]).
`C[C@H](Cn1cnc2c(N)ncnc21)OCP(=O)(O)O` [Tenofovir]: the IC50 in the data set on mouse LINE-1 (setting [8]) worked out at 3470 nM; with mouse LINE-1 (setting [9]), 4020 nM; with mouse LINE-1 (setting [10]) it was 3750 nM; with human LINE-1 [1] (Table 13 Comparative Studies, read-out: Human Line-1 IC50), 2770 nM.
Take `Cc1cn([C@H]2C[C@H](N=[N+]=[N-])[C@@H](CO)O2)c(=O)[nH]c1=O` [Zidovudine]: the IC50 amounted to 810 nM with human LINE-1 [1] (setting [11]), 1680 nM in the data set with human LINE-1 [1] (setting [14]), 410 nM with human LINE-1 [1] (setting [12]) and 340 nM in the data set on human LINE-1 [1] (setting [13]).
